This experiment concerns the target DCN1 (DCUND1) protein PONY domain (Homo sapiens (Human), UniProt Q96GG9). As to the kind of experiment: TR-FRET assay (binding to DCN-1, displacement of FAM-labeled probe).
Source text: (§1) The TR-FRET assay was designed following the Scott et al. protocol (Scott et al., Nat Chem Biol. 2017 August; 13(8): 850-857. doi:10.1038/nchembio.2386). The recombinant form of the DCN1 (DCUND1) protein PONY domain was produced using an E. coli expression system at Viva Biotech (China). The DCN1 protein was biotinylated (EZ sulfo-NHS-LC-biotin; Thermofisher) for labeling with streptavidin terbium (Tb) cryptate in the reaction. The probe was changed to a non-covalent DCN1 inhibitor labeled with carboxyfluorescein (FAM; Zhou et al., Nat Commun. 2017; 8: 1150. doi: 10.1038/s41467-017-01243-7). Buffer conditions were modified to enhance protein stability by exchanging Tween20 for TritonX and increasing NaCl to 200 mM. The compounds were screened against 5 nM DCN1 and 20 nM FAM-probe or 0.31 nM DCN1 and 900 nM total probe (100 nM FAM-labeled plus 800 nM unlabeled). The TR-FRET ratio between Tb-DCN1 and the FAM-labeled probe was measured in a 384-well opti-plate (Perkin Elmer) using a plate reader (BMG) at 1, 5, and 24 hrs after treatment with compound (final DMSO concentration of 0.1%). The ratio was normalized to the high (DCN1 and FAM-probe) and low (DCN1 and no probe) controls for a readout of % activity (=100*(x−low)/(high−low).
A TR-FRET assay was performed to evaluate the ability of the compounds to bind the DCN-1 protein.
as §1, with “850-857. Doi: 10.1038/nchembio.2386).” for “850-857. doi:10.1038/nchembio.2386).”, “the DCNI” for “the DCN1”, “1150. Doi:” for “1150. doi:”, “0.1%).” for “0.1%). The ratio was normalized to the high (DCN1 and FAM-probe) and low (DCN1 and no probe) controls for a readout of % activity (=100*(x−low)/(high−low).”
(In general: In TR-FRET formats the signal depends on donor and acceptor labels being close together.)

Setting [1] is: 24 hr after treatment with compound, read-out: TR FRET IC50 24 hr.
The mark [2] stands for this setting: TR FRET IC50 1 hr (nM), 1 hr after treatment with compound.
The mark [3] stands for this setting: read-out: TR FRET IC50 1 hr, 1 hr after treatment with compound.

Each structure is given as a SMILES string. Where two headings read alike, the source gives them in different places.

Sequence of DCN1 (DCUND1) protein PONY domain (Q96GG9 60-248): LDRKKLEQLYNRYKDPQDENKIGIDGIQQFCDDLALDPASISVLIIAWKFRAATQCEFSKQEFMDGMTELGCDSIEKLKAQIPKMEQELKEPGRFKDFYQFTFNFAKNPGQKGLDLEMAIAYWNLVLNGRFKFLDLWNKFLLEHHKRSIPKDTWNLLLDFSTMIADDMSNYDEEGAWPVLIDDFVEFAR

On to `CCN1C(=O)[C@@H](NC(=O)c2cccc(C(F)(F)F)c2)[C@H](c2cccc(NC(=O)C3=CCCN(C)C3)c2)c2cnn(-c3ccccc3)c21` (racemic) [Compound I-58], for which the IC50 (as a rule, the concentration that gives 50% inhibition) is at most 200 nM under setting [1] and 1000 to 3000 nM under setting [2].
Take `C=C(C(=O)NCc1cccc([C@@H]2c3cnn(-c4ccccc4)c3N(CC)C(=O)[C@H]2NC(=O)c2ccn(CCF)n2)c1)C(C)N(C)C1COC1` (some centres unmarked) [Compound I-334]: the IC50 reads like this: under setting [1], at most 200 nM; under setting [2], 200 to 1000 nM.
Take `C=CC(=O)NCc1cccc([C@@H]2c3cnn(-c4ccccc4)c3N(CC)C(=O)[C@H]2NC(=O)c2cccc(C(F)(F)F)c2)c1` (racemic) [Compound I-111]: the IC50 is, setting by setting: under setting [1], 1000 to 3000 nM; under setting [2], 1000 to 3000 nM.
On to `C=C(CN1CC2CCC(C1)O2)C(=O)NCc1cccc([C@@H]2c3cnn(-c4ccccc4)c3N(CC)C(=O)[C@H]2NC(=O)c2ccn(C(F)(F)F)n2)c1` [Compound I-347], for which the IC50 by setting is: under setting [1], at most 200 nM; under setting [3], at most 200 nM.
With `C=C(CN1CCC12COC2)C(=O)N(C)Cc1cccc([C@@H]2c3cnn(-c4ccccc4)c3N(CC)C(=O)[C@H]2NC(=O)c2ccn(C3CC3)n2)c1` [Compound I-373], the half-maximal inhibitory concentration (IC50) is at most 200 nM under setting [1] and 200 to 1000 nM under setting [2].
Take `CCN1C(=O)[C@H](NC(=O)c2cccc(C(F)(F)F)c2)[C@@H](c2cccc(CNC(=O)/C=C(\C)C(=O)OC)c2)c2cnn(-c3ccccc3)c21` [Compound I-116]: the IC50 is, setting by setting: under setting [1], 1000 to 3000 nM; under setting [2], 1000 to 3000 nM.
Regarding `C=C(CN(C)C1COC1)C(=O)NCc1cccc([C@H]2c3c(C)nn(-c4ccccc4)c3N(CC)C(=O)[C@@H]2NC(=O)c2cccc(C(F)(F)F)c2)c1` [Compound I-349], the IC50 under setting [1] was in the range of 200 to 1000 nM and the IC50 under setting [2] was in the range of 1000 to 3000 nM.
Consider `C/C=C(\CN1CCC12COC2)C(=O)Nc1cccc([C@@H]2c3cnn(-c4ccccc4)c3N(CC)C(=O)[C@H]2NC(=O)c2nccc(C(F)(F)F)n2)c1` [Compound I-251], for which the IC50 is at most 200 nM under setting [1] and 1000 to 3000 nM under setting [2].
The corresponding values for `C/C=C(\CN(C)C1COC1)C(=O)NCc1cccc([C@@H]2c3cnn(-c4ccccc4)c3N(CC)C(=O)[C@H]2NC(=O)c2csc(C(F)(F)F)n2)c1` [Compound I-365] are at most 200 nM and 200 to 1000 nM.
As to `C=C(CN1CC2CC(C1)O2)C(=O)NCc1cccc([C@@H]2c3cnn(-c4ccccc4)c3N(CC)C(=O)[C@H]2NC(=O)c2ccn(C(F)(F)F)n2)c1` [Compound I-315], the IC50 was at most 200 nM under setting [1] and at most 200 nM under setting [3].
Regarding `C/C=C(\CN1CC2CC(C1)O2)C(=O)Nc1cccc([C@@H]2c3cnn(-c4ccccc4)c3N(CC)C(=O)[C@H]2NC(=O)c2nccc(C(F)(F)F)n2)c1` [Compound I-337, N-((4R,5S)-4-(3-((E)-2-((6-oxa-3-azabicyclo[3.1.1]heptan-3-yl)methyl)but-2-enamido)phenyl)-7-ethyl-6-oxo-1-phenyl-4,5,6,7-tetrahydro-1H-pyrazolo[3,4-b]pyridin-5-yl)-4-(trifluoromethyl)pyrimidine-2-carboxamide], the IC50 under setting [1] is at most 200 nM and the IC50 under setting [2] was in the range of 200 to 1000 nM.
In the case of `C=C(CN1CCCC1)C(=O)NCc1cccc([C@@H]2c3cnn(-c4ccccc4)c3N(CC)C(=O)[C@H]2NC(=O)c2cccc(C(F)(F)F)c2)c1` [Compound I-264], the IC50 reads like this: under setting [1], at most 200 nM; under setting [3], at most 200 nM.
Regarding `CCN1C(=O)[C@@H](NC(=O)c2cccc(C(F)(F)F)c2)[C@H](c2ccccc2NC(=O)CCl)c2c(C)nn(-c3ccccc3)c21` [Compound I-52, N-((4R,5S)-4-(2-(2-chloroacetamido)phenyl)-7-ethyl-3-methyl-6-oxo-1-phenyl-4,5,6,7-tetrahydro-1H-pyrazolo[3,4-b]pyridin-5-yl)-3-(trifluoromethyl)benzamide], the IC50 is, setting by setting: under setting [1], at most 200 nM; under setting [2], 1000 to 3000 nM.
Turning to `CCN1C(=O)[C@@H](NC(=O)c2cccc(C(F)(F)F)c2)[C@H](c2cccc(CNC(=O)/C(C)=C/C(=O)OC)c2)c2cnn(-c3ccccc3)c21` [Compound I-95], the IC50 is, setting by setting: under setting [1], 1000 to 3000 nM; under setting [2], 1000 to 3000 nM.
Take `C=C(CN(C)C1COC1)C(=O)N(C)Cc1cccc([C@@H]2c3cnn(-c4ccccc4)c3N(CC)C(=O)[C@H]2NC(=O)c2nccc(C(F)(F)F)n2)c1` [Compound I-254]: the concentration for half-maximal inhibition (IC50) under setting [2] was 1000 to 3000 nM.
As for `CCN1C(=O)[C@H](NC(=O)c2cccc(C(F)(F)F)c2)[C@@H](c2ccccc2N(C)C#N)c2cnn(-c3ccccc3)c21` (racemic) [Compound I-90, ˜{N}—[˜{rac}-(4˜{S},5˜{R})-4-[2-[cyano(methyl)amino]phenyl]-7-ethyl-6-oxo-1-phenyl-4,5-dihydropyrazolo[3,4-b]pyridin-5-yl]-3-(trifluoromethyl)benzamide], the IC50 is, setting by setting: under setting [1], 1000 to 3000 nM; under setting [2], 1000 to 3000 nM.
Consider `C=C(CN1CC2(COC2)C1)C(=O)NCc1cccc([C@H]2c3c(C)nn(-c4ccccc4)c3N(CC)C(=O)[C@H]2NC(=O)c2cccc(C(F)(F)F)c2)c1` [Compound I-304], for which the IC50 lay within 200 to 1000 nM under setting [1] and 1000 to 3000 nM under setting [2].
As for `C=C(CN(C)C1COC1)C(=O)NCc1cccc([C@H]2c3cnn(-c4ccccc4)c3N(CC)C(=O)[C@@H]2NC(=O)c2cccc(C(F)(F)F)c2)c1` [Compound I-154], the IC50 lay in the range of 200 to 1000 nM under setting [1] and 1000 to 3000 nM under setting [2].
The corresponding values for `CCN1C(=O)[C@@H](NC(=O)c2cccc(C(F)(F)F)c2)[C@H](c2cccc(CNC(=O)C3=C(C(=O)OC)CC3)c2)c2cnn(-c3ccccc3)c21` [Compound I-155] are at most 200 nM and 1000 to 3000 nM.
The corresponding values for `CCN1C(=O)[C@@H](NC(=O)c2nccc(C(F)(F)F)n2)[C@H](c2ccccc2/C=C/C#N)c2cnn(-c3ccccc3)c21` (racemic) [Compound I-259, rac-N-((4R,5S)-4-(2-((E)-2-cyanovinyl)phenyl)-7-ethyl-6-oxo-1-phenyl-4,5,6,7-tetrahydro-1H-pyrazolo[3,4-b]pyridin-5-yl)-4-(trifluoromethyl)pyrimidine-2-carboxamide] are 1000 to 3000 nM and 1000 to 3000 nM.
Take `CCN1C(=O)[C@H](NC(=O)c2cccc(C(F)(F)F)c2)[C@@H](c2cccc(NC(=O)C3=CCC3)c2)c2c(C)nn(-c3ccccc3)c21` [Compound I-94, N-((4S,5R)-4-(3-(cyclobut-1-ene-1-carboxamido)phenyl)-7-ethyl-3-methyl-6-oxo-1-phenyl-4,5,6,7-tetrahydro-1H-pyrazolo[3,4-b]pyridin-5-yl)-3-(trifluoromethyl)benzamide]: the IC50 lay within 1000 to 3000 nM under setting [1] and 1000 to 3000 nM under setting [3].
Turning to `C=CC(=O)N(C)c1cccc([C@H]2c3cnn(-c4ccccc4)c3N(CC)C(=O)[C@@H]2NC(=O)c2cccc(C(F)(F)F)c2)c1` (racemic) [Compound I-74], the IC50 runs as follows: under setting [1], 1000 to 3000 nM; under setting [2], 1000 to 3000 nM.
Consider `CCN1C(=O)[C@@H](NC(=O)c2cccc(C(F)(F)F)c2)[C@H](c2cccc(NC(=O)C3=C(C(=O)OC)CCC3)c2)c2c(C)nn(-c3ccccc3)c21` (racemic) [Compound I-117], for which the IC50 is, setting by setting: under setting [1], 1000 to 3000 nM; under setting [2], 1000 to 3000 nM.
Take `CCN1C(=O)[C@H](NC(=O)c2cccc(C(F)(F)F)c2)[C@@H](c2cccc(CNC(=O)/C(C)=C/C(=O)OC)c2)c2cnn(-c3ccccc3)c21` [Compound I-125]: the IC50 under setting [1] is 1000 to 3000 nM and the IC50 under setting [2] fell in the range of 1000 to 3000 nM.
As for `CCN1C(=O)[C@@H](NC(=O)c2cccc(C(F)(F)F)c2)[C@H](c2cccc(CN(C)C#N)c2)c2cnn(-c3ccccc3)c21` (racemic) [Compound I-104], the IC50 is 1000 to 3000 nM under setting [1] and 1000 to 3000 nM under setting [2].
Consider `C=C(CN1CCC(F)(F)C1)C(=O)NCc1cccc([C@H]2c3cnn(-c4ccccc4)c3N(CC)C(=O)[C@@H]2NC(=O)c2cccc(C(F)(F)F)c2)c1` [Compound I-102], for which the IC50 under setting [1] lay in the range of 1000 to 3000 nM and the concentration for half-maximal inhibition (IC50) under setting [2] was 1000 to 3000 nM.
On to `CCN1C(=O)[C@@H](NC(=O)c2nccc(C(F)(F)F)n2)[C@H](c2cccc(C(=O)N3CCC[C@@H]3C#N)c2)c2cnn(-c3ccccc3)c21` (mixture of isomers) [Compound I-250], for which the IC50 lay within 1000 to 3000 nM under setting [1] and 1000 to 3000 nM under setting [2].

For the origin of these results see patent US12435087B2, “Modulators of DCN-1 and methods of use thereof” (Cellarity, Inc., priority 2023, dated 2025).
